Assay results from US9242996B2 (Novartis AG, priority 2013, dated 2016).

Each molecule was assayed against activated ERK2 (Homo sapiens (Human), UniProt P28482) (assay: Activated ERK2 (20 pM) Kinase Assay (AlphaScreen, ERKtide phosphorylation)). Conditions: 0.02 nM ERK2, 400 nM ERKtide peptide, 35 μM ATP, 30 min preincubation.
Format: biochemical
Experimental: Activated ERK2 (20 pM) Kinase Assay:
The assay was carried out in 20 mM HEPES [pH 7.5], 5 mM MgCl2, 1 mM DTT, 0.01% Tween-20, 0.05% BSA using 0.02 nM ERK2, 400 nM ERKtide peptide and 35 μM ATP (all concentrations are final in the reaction) in a total volume of 10.25 μL. […] Compound dilution series were prepared in 100% DMSO. ERK2 was preincubated with compounds for 30 minutes at ambient temperature. Reaction was initiated by addition of a substrate cocktail of ERKtide peptide and ATP and was allowed to proceed for 4 hours at ambient temperature. Reaction was terminated by addition of 10 μL of a 2× stop buffer consisting of 100 mM Tris-Cl [pH 7.5], 25 mM EDTA, 0.01% Tween 20, 20 μg/mL of AlphaScreen Protein A Acceptor Beads, 20 μg/mL of Streptavidin Donor Beads (PerkinElmer, Waltham, Mass.), and 1:1000 dilution phospho-EGF Receptor (Thr669) antibody (Cat #8808, Cell Signaling Technology, Danvers, Mass.). Terminated reactions were read, after overnight incubation in the dark, on an EnVision Multilabel Plate Reader (PerkinElmer, Waltham, Mass.), with excitation and emission wavelengths set to 680 nm and 570 nm, respectively. IC50 values were determined using a four-parameter fit.

Chain of activated ERK2 (P28482 whole entry): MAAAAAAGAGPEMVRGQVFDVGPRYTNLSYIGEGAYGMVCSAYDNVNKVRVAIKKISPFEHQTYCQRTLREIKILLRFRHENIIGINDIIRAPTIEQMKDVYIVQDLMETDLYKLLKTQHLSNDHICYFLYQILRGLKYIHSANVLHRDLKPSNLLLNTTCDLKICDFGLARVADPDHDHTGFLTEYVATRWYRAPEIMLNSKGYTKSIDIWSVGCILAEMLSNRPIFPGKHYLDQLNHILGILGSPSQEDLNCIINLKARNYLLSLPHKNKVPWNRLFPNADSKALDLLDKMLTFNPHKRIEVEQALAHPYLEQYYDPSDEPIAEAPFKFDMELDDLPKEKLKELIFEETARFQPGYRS

Row | SMILES | IC50 [nM]
1 | Nc1ncc([C@H]2CC[C@@H](O)[C@@H](F)C2)nc1-c1ccc(C(=O)N[C@H](CO)c2cc(F)cc(Br)c2)c(F)c1 [Example 186, 4-(3-amino-6-((1S,3S,4R)-3-fluoro-4-hydroxycyclohexyl)pyrazin-2-yl)-N—((S)-1-(3-bromo-5-fluorophenyl)-2-hydroxyethyl)-2-fluorobenzamide] | 0.653
2 | Nc1ncc([C@@H]2CC[C@@H](O)[C@@H](F)C2)nc1-c1ccc(C(=O)N[C@H](CO)c2cc(F)cc(Br)c2)c(F)c1 [Example 187, 4-(3-amino-6-((1R,3S,4R)-3-fluoro-4-hydroxycyclohexyl)pyrazin-2-yl)-N—((S)-1-(3-bromo-5-fluorophenyl)-2-hydroxyethyl)-2-fluorobenzamide] | 0.0363
3 | Nc1ncc([C@H]2CC[C@H](O)[C@H](F)C2)nc1-c1ccc(C(=O)N[C@H](CO)c2cc(F)cc(Br)c2)c(F)c1 [Example 188, 4-(3-amino-6-((1S,3R,4S)-3-fluoro-4-hydroxycyclohexyl)pyrazin-2-yl)-N—((S)-1-(3-bromo-5-fluorophenyl)-2-hydroxyethyl)-2-fluorobenzamide] | 0.0469
4 | Nc1ncc([C@H]2CC[C@H](O)CC2)nc1-c1ccc(C(=O)N[C@H]2C[C@@H]2c2ccccc2)c(F)c1 [Example 202, 4-(3-amino-6-((1r,4S)-4-hydroxycyclohexyl)pyrazin-2-yl)-2-fluoro-N-((1S,2R)-2-phenylcyclopropyl)benzamide] | 0.152
5 | Nc1ncc([C@H]2CC[C@H](O)CC2)nc1-c1ccc(C(=O)N[C@@H]2C[C@H]2c2ccccc2)c(F)c1 [Example 203, 4-(3-amino-6-((1r,4R)-4-hydroxycyclohexyl)pyrazin-2-yl)-2-fluoro-N-((1R,2S)-2-phenylcyclopropyl)benzamide] | 7.33
6 | N#Cc1cc(-c2cc(C3CCOCC3)cnc2N)cc(F)c1C(=O)NCc1ccccc1 [Example 204, 4-(2-amino-5-(tetrahydro-2H-pyran-4-yl)pyridin-3-yl)-N-benzyl-2-cyano-6-fluorobenzamide] | 54.6
7 | NC[C@@H](NC(=O)c1ccc(-c2nc(C3CCCCC3)cnc2N)cc1F)c1cccc(Cl)c1 [Example 228, (S)-N-(2-amino-1-(3-chlorophenyl)ethyl)-4-(3-amino-6-cyclohexylpyrazin-2-yl)-2-fluorobenzamide] | 0.0505
8 | Cn1nccc1-c1cnc(N)c(-c2ccc(C(=O)N[C@H](CN)c3cccc(Cl)c3)c(F)c2)c1 [Example 233, (S)-N-(2-amino-1-(3-chlorophenyl)ethyl)-4-(2-amino-5-(1-methyl-1H-pyrazol-5-yl)pyridin-3-yl)-2-fluorobenzamide] | 0.0209
9 | Cn1cc(-c2cnc(N)c(-c3ccc(C(=O)N[C@H](CO)c4ccc(F)c(Cl)c4)c(F)c3)c2)cn1 [Example 241, (S)-4-(2-amino-5-(1-methyl-1H-pyrazol-4-yl)pyridin-3-yl)-N-(1-(3-chloro-4-fluorophenyl)-2-hydroxyethyl)-2-fluorobenzamide] | 0.944
10 | Cn1cc(-c2cnc(N)c(-c3ccc(C(=O)N[C@H](CO)C4CCCCC4)c(F)c3)c2)cn1 [Example 244, (S)-4-(2-amino-5-(1-methyl-1H-pyrazol-4-yl)pyridin-3-yl)-N-(1-cyclohexyl-2-hydroxyethyl)-2-fluorobenzamide] | 157
11 | Cn1cc(-c2cnc(N)c(-c3ccc(C(=O)N[C@H](CO)c4cc(F)cc(C(F)F)c4)c(F)c3)c2)cn1 [Example 253, (S)-4-(2-amino-5-(1-methyl-1H-pyrazol-4-yl)pyridin-3-yl)-N-(1-(3-(difluoromethyl)-5-fluorophenyl)-2-hydroxyethyl)-2-fluorobenzamide] | 0.106
12 | Cn1nccc1-c1cnc(N)c(-c2ccc(C(=O)N[C@H](CO)c3cccc(CF)c3)c(F)c2)c1 [Example 254, (S)-4-(2-amino-5-(1-methyl-1H-pyrazol-5-yl)pyridin-3-yl)-2-fluoro-N-(1-(3-(fluoromethyl)phenyl)-2-hydroxyethyl) benzamide] | 0.0599
13 | Cc1nn(C)cc1-c1cnc(N)c(-c2ccc(C(=O)N[C@H](CO)c3cccc(CF)c3)c(F)c2)c1 [Example 255, (S)-4-(2-amino-5-(1,3-dimethyl-1H-pyrazol-4-yl)pyridin-3-yl)-2-fluoro-N-(1-(3-(fluoromethyl)phenyl)-2-hydroxyethyl) benzamide] | 0.0287
14 | Cc1c(-c2cnc(N)c(-c3ccc(C(=O)N[C@H](CO)c4cccc(CF)c4)c(F)c3)c2)cnn1C [Example 256, (S)-4-(2-amino-5-(1,5-dimethyl-1H-pyrazol-4-yl)pyridin-3-yl)-2-fluoro-N-(1-(3-(fluoromethyl)phenyl)-2-hydroxyethyl) benzamide] | 0.0258
15 | Nc1ncc(C2CCOCC2)nc1-c1ccc(C(=O)N[C@H](CO)c2cccc(Br)c2)c(F)c1 [Example 258, (S)-4-(3-amino-6-(tetrahydro-2H-pyran-4-yl)pyrazin-2-yl)-N-(1-(3-bromophenyl)-2-hydroxyethyl)-2-fluorobenzamide] | 0.0343
16 | Cc1c(-c2cnc(N)c(-c3ccc(C(=O)N[C@H](CO)c4cccc(CF)c4)c(F)c3)c2)cnn1C(F)F [Example 260, (S)-4-(2-amino-5-(1-(difluoromethyl)-5-methyl-1H-pyrazol-4-yl)pyridin-3-yl)-2-fluoro-N-(1-(3-(fluoromethyl)phenyl)-2-hydroxyethyl) benzamide] | 0.0208
17 | Cc1c(-c2cnc(N)c(-c3ccc(C(=O)N[C@H](CO)c4cccc(Cl)c4)c(F)c3)c2)cnn1C(F)F [Example 264, (S)-4-(2-amino-5-(1-(difluoromethyl)-5-methyl-1H-pyrazol-4-yl)pyridin-3-yl)-N-(1-(3-chlorophenyl)-2-hydroxyethyl)-2-fluorobenzamide] | 0.0431
18 | Cn1nncc1-c1cnc(N)c(-c2ccc(C(=O)N[C@H](CO)c3cc(F)cc(Br)c3)c(F)c2)c1 [Example 265] | 0.031

Now those with a lower IC50, led by results:

Row | IC50 [nM] | SMILES
19 | 0.0139 | Nc1ncc([C@H]2CC[C@H](O)[C@@H](F)C2)nc1-c1ccc(C(=O)N[C@H](CO)c2cc(F)cc(I)c2)c(F)c1 [Example 189, 4-(3-amino-6-((1S,3S,4S)-3-fluoro-4-hydroxycyclohexyl)pyrazin-2-yl)-2-fluoro-N—((S)-1-(3-fluoro-5-iodophenyl)-2-hydroxyethyl)benzamide]
20 | 0.0176 | Nc1ncc([C@@H]2CC[C@@H](O)[C@H](F)C2)nc1-c1ccc(C(=O)N[C@H](CO)c2cc(F)cc(I)c2)c(F)c1 [Example 190, 4-(3-amino-6-((1R,3R,4R)-3-fluoro-4-hydroxycyclohexyl)pyrazin-2-yl)-2-fluoro-N—((S)-1-(3-fluoro-5-iodophenyl)-2-hydroxyethyl)benzamide]
21 | 0.0104 | Cc1nn(C(F)F)cc1-c1cnc(N)c(-c2ccc(C(=O)N[C@H](CO)c3cc(F)cc(CF)c3)c(F)c2)c1 [Example 206, (S)-4-(2-amino-5-(1-(difluoromethyl)-3-methyl-1H-pyrazol-4-yl)pyridin-3-yl)-2-fluoro-N-(1-(3-fluoro-5-(fluoromethyl)phenyl)-2-hydroxyethyl)benzamide]
22 | 0.0199 | Cn1cc(-c2cnc(N)c(-c3ccc(C(=O)N[C@H](CO)c4cc(F)cc(CF)c4)c(F)c3)c2)cn1 [Example 240, (S)-4-(2-amino-5-(1-methyl-1H-pyrazol-4-yl)pyridin-3-yl)-2-fluoro-N-(1-(3-fluoro-5-(fluoromethyl)phenyl)-2-hydroxyethyl) benzamide]
23 | 0.00875 | Cc1c(-c2cnc(N)c(-c3ccc(C(=O)N[C@H](CO)c4cc(F)cc(CF)c4)c(F)c3)c2)cnn1C [Example 242, (S)-4-(2-amino-5-(1,5-dimethyl-1H-pyrazol-4-yl)pyridin-3-yl)-2-fluoro-N-(1-(3-fluoro-5-(fluoromethyl)phenyl)-2-hydroxyethyl) benzamide]
24 | 0.0121 | Cc1nn(C)cc1-c1cnc(N)c(-c2ccc(C(=O)N[C@H](CO)c3cc(F)cc(CF)c3)c(F)c2)c1 [Example 243, (S)-4-(2-amino-5-(1,3-dimethyl-1H-pyrazol-4-yl)pyridin-3-yl)-2-fluoro-N-(1-(3-fluoro-5-(fluoromethyl)phenyl)-2-hydroxyethyl) benzamide]
25 | 0.0197 | Nc1ncc(C2CCOCC2)nc1-c1ccc(C(=O)N[C@H](CO)c2cccc(CF)c2)c(F)c1 [Example 257, (S)-4-(3-amino-6-(tetrahydro-2H-pyran-4-yl)pyrazin-2-yl)-2-fluoro-N-(1-(3-(fluoromethyl)phenyl)-2-hydroxyethyl) benzamide]
26 | 0.0127 | Nc1ncc(C2CCOCC2)nc1-c1ccc(C(=O)N[C@H](CO)c2cc(F)cc(Br)c2)c(F)c1 [Example 259, (S)-4-(3-amino-6-(tetrahydro-2H-pyran-4-yl)pyrazin-2-yl)-N-(1-(3-bromo-5-fluorophenyl)-2-hydroxyethyl)-2-fluorobenzamide]
27 | 0.0168 | Cc1nn(C(F)F)cc1-c1cnc(N)c(-c2ccc(C(=O)N[C@H](CO)c3cccc(CF)c3)c(F)c2)c1 [Example 261, (S)-4-(2-amino-5-(1-(difluoromethyl)-3-methyl-1H-pyrazol-4-yl)pyridin-3-yl)-2-fluoro-N-(1-(3-(fluoromethyl)phenyl)-2-hydroxyethyl) benzamide]
28 | 0.014 | Cc1c(-c2cnc(N)c(-c3ccc(C(=O)N[C@H](CO)c4cc(F)cc(CF)c4)c(F)c3)c2)cnn1C(F)F [Example 262, (S)-4-(2-amino-5-(1-(difluoromethyl)-5-methyl-1H-pyrazol-4-yl)pyridin-3-yl)-2-fluoro-N-(1-(3-fluoro-5-(fluoromethyl)phenyl)-2-hydroxyethyl) benzamide]
